Here are results for 21 compounds from the RepoRT retention time repository.

Each structure is given as a SMILES string.

The nature of this data set: HILIC, Waters ACQUITY UPLC BEH Amide, 100 × 2.1 mm, 1.7 µm; A: water + 0.125% formic acid + 10 mM ammonium formate; B: 5% water + 95% acetonitrile + 0.125% formic acid + 10 mM ammonium formate; gradient (min/%B) 0/100 2/100 7.7/70 9.5/40 10.25/30 12.75/100 17/100. The following applies: stereoisomer not certain.

Take `Cc1ccc(-c2nc3ccc(C)cn3c2CC(=O)N(C)C)cc1` [Zolpidem]: the LC retention time worked out at 1.62 min. Under `N[C@H]1[C@@H](OP(=O)(O)O)O[C@H](CO)[C@H](O)[C@@H]1O` [alpha-Galactosamine-1-phosphate] stands 7.06 min; under `CSCCC(=O)C(=O)O` [alpha-Keto-gamma-(methylthio)butyric acid], 0.92 min; under `C=C1CCOC1=O` [alpha-Methylene-gamma-butyrolactone], 1.05 min. In the case of `C[C@](N)(Cc1cnc[nH]1)C(=O)O` [alpha-Methylhistidine], the LC retention time is 8.68 min. Next, `CC1=C2C3OC(=O)C(C)C3CCC2(C)C=CC1=O` (stereo not drawn) [alpha-Santonin]: 1.07 min; `NCCC(=O)O` [beta-Alanine]: 8.02 min; `CC(C)(O)CC(=O)O` [beta-Hydroxyisovaleric acid]: 4.55 min. Under `CNC[C@H](N)C(=O)O` [beta-N-Methylaminoalanine] stands 9.32 min.

For the compound `NCC(O)CCC(N)C(=O)O` (stereo unspecified) [delta-Hydroxylysine], the LC retention time stood at 9.77 min. Next, `NCCCC(=O)O` [gamma-Aminobutyric Acid]: 7.86 min; `NC(CCC(=O)NC(CS)C(=O)O)C(=O)O` (stereo unspecified) [gamma-Glutamyl-cysteine]: 8.98 min. Next, `NC(=O)CCC(NC(=O)CCC(N)C(=O)O)C(=O)O` (stereo unspecified) [gamma-Glutamylglutamine]: 9.55 min; `CC(C)CC(NC(=O)CCC(N)C(=O)O)C(=O)O` (stereo unspecified) [gamma-Glutamylleucine]: 8.1 min; `CSCCC(NC(=O)CCC(N)C(=O)O)C(=O)O` (stereo unspecified) [gamma-Glutamylmethionine]: 8.55 min. Regarding `NC(CCC(=O)NC(Cc1ccc(O)cc1)C(=O)O)C(=O)O` (stereo unspecified) [gamma-Glutamyltyrosine], the LC retention time worked out at 8.52 min. Under `CC(OP(=O)(O)O)C(N)C(=O)O` (stereo unspecified) [o-Phosphothreonine] stands 9.74 min; under `CN(C)c1ccc(N=Nc2ccccc2)cc1` [p-(Dimethylamino)azobenzene [methyl yellow]], 0.93 min. Next, `O=C(O)C=Cc1ccc(O)cc1` [p-Coumaric acid]: 1.38 min; `CN1C(=O)C(O)CC1c1cccnc1` (stereo not drawn) [trans-3'-Hydroxycotinine]: 2.02 min. Next, `OCC1OC(Oc2cc(O)cc(C=Cc3ccc(O)cc3)c2)C(O)C(O)C1O` (stereo not drawn) [trans-Piceid]: 4.64 min.
